Assays:
[1] = test system: epithelial ovarian cancer cell line OVCAR-3; test: cell-growth-on-bead assay, OVCAR-3; type: cell-based, human; conditions: Example 4, cX2GX4GX6X7c library, peptide concentration on bead surface 20% of Example 3
Procedure: (§1) The ratio of cells to beads is preferably about 10:1, but can range from about 1:1 to 100:1. The suspension of cells 10 and beads 12 is mixed gently for sufficient time to assure contact of beads 12 with suspended cells 10. The culture plates are incubated in a tissue culture incubator at about 4° C. to about 37° C., preferably 37° C., for a period of about 24 to about 72 hours. The suspension of cells 10 and beads 12 may be kept still or mixed, either continuously or intermittently, during the incubation period.
After the incubation period, beads 12 are observed under a dissecting microscope. […] These beads 14 (referred to as “positive” beads) are removed from the culture plates. A tetrazolium dye that stains live, but not dead, cells can be used to facilitate the identification and removal of the positive beads. If a dye is used, all of the beads are removed after the incubation period and resuspended in fresh medium in new culture plates. The dye is added. The plates are then incubated in a tissue culture incubator at 25° C. to 37° C. for about one to four hours. Live cells 10 convert the dye to a colored metabolite, which results in beads 14 with attached cells appearing colored, allowing them to be easily distinguished from beads 16 without attached cells, which appear colorless, as shown in FIG. 1E. Other dyes that stain live cells can also be used. After positive beads 14 are removed from the plates, attached cells 10 are separated from the beads. This can be done with the addition of a chaotrophic agent, such as 8 M guanidine hydrochloride, or a protease, such as trypsin.
About 150,000 peptide beads were mixed with approximately one million suspended cells in 15 ml of culture medium and distributed into six 3-cm culture plates. The culture plates were agitated gently at about 100 rpm for about 10 minutes. The culture plates were then incubated in a tissue culture incubator at 37° C. for about 24 hours to about 72 hours.
A dissecting microscope was used to examine the beads at about 24, 48, and 72 hours. After about 24 to 72 hours, beads with a monolayer of cells were observed.
At the end of the incubation period, all of the beads were removed and resuspended in fresh medium in a new culture plate. An MTT ([3-(4,5-dimethylthiazol-2-yl)-2,5-diphenyl] tetrazolium bromide) (Sigma, St. Louis, Mo.) dye solution was added to each culture plate to a final concentration of 0.5 mg/ml. The plates were incubated in a tissue culture incubator at 37° C. for about two hours to allow the purple color to develop. Each purple-colored peptide bead was isolated and removed. The attached cells were separated from the beads with 8 M guanidine hydrochloride.
The amino acid sequence of each isolated peptide bead was determined using an automated Procise 494 protein sequencer (Applied Biosystems, Foster City, Calif.). Several consensus peptide sequences were determined, one of which was cNGRGEQc. This peptide was resynthesized on beads, which were then rescreened with the A549 cells using the assay of the invention.
The method as described in Example 1 was performed, except that a different combinatorial library was used and different types of epithelial cancer cells were used. The peptide library of Example 3 was used, except that the concentration of peptides on the surface of each bead was 20% of that used in Example 3, resulting in an increase in screening stringency.
The peptide library was screened with one of the following epithelial ovarian cancer cell lines: CaOV3, SKOV-3, ES-2 and OVCAR-3 (American Type Culture Collection).
As described in Example 1, after culturing for about 24 to 72 hours, beads with a monolayer of cells were observed. These positive beads were isolated and the amino acid sequence of each positive bead was determined, as described in Example 1.

[2] = test system: non-small-cell lung cancer cell line, A549; test: cell-growth-on-bead assay, A549; type: cell-based, human; conditions: peptide resynthesized on beads, rescreened with A549 cells
Procedure: The cell-growth-on-bead assay includes the following steps. A one-bead-one-compound combinatorial library is prepared. The library is preferably synthesized using the “split synthesis” approach described in Lam et al., “A new type of synthetic peptide library,” 82-84. The compounds of the library may be small molecules, peptides, or other types of molecules. An example of a suitable library is a peptide library containing cXXXXXXc peptides, where “c” is D-cysteine which provides intramolecular cyclization by disulfide bonding, and “X” is any L, D, unnatural, or modified amino acid. A suitable solid phase support, such as beads or discs made of polystyrene, agarose, acrylamide, glass, plastic, or paramagnetic substances, is used. Polystyrene beads have been found satisfactory. A standard synthetic solid phase peptide synthesis method, such as fluorenylmethyoxycarbonyl (Fmoc) chemistry or t-butyloxycarbonyl (Boc) chemistry, is used. […]
The chemical structure of the compound (i.e. ligand) on each isolated positive bead 14 is then determined. If the combinatorial library used was a peptide library, then the amino acid sequence of the ligand is preferably determined with an automated protein sequencer, such as the Procise 494 (Applied Biosystems, Foster City, Calif.). Alternatively, the peptide can be released via a cleavable linker and the amino acid sequence determined by mass spectroscopy. […]

[3] = test system: non-malignant bronchoepithelial cell line, HBE-1; test: cell-growth-on-bead assay, HBE-1; type: cell-based; conditions: HBE-1 cells
Procedure: as §1
After the incubation period, beads 12 are observed under a dissecting microscope. […] These beads 14 (referred to as “positive” beads) are removed from the culture plates. A tetrazolium dye that stains live, but not dead, cells can be used to facilitate the identification and removal of the positive beads. If a dye is used, all of the beads are removed after the incubation period and resuspended in fresh medium in new culture plates. The dye is added. The plates are then incubated in a tissue culture incubator at 25° C. to 37° C. for about one to four hours. Live cells 10 convert the dye to a colored metabolite, which results in beads 14 with attached cells appearing colored, allowing them to be easily distinguished from beads 16 without attached cells, which appear colorless, as shown in FIG. 1E. Other dyes that stain live cells can also be used. […]

| Substance | identified as ligand (positive bead with monolayer of cells) [1] | beads with this sequence exhibiting cell attachment and growth on their surfaces [2] | peptide beads on which cell growth was observed [3] |
| --- | --- | --- | --- |
| c-d-G-Nle-G-1-G-c | identified |  |  |
| cNGRGEQc |  | Virtually all | 10% |
| c-d-G-Tyr(3-NO2)-G-Aic-Q-c | identified |  |  |
| c-Nle-G-Nle-G-Tyr(3-NO2)-L-c | identified |  |  |
| c-d-G-Phe(3-C l)-G-T-Y-c | identified |  |  |
| c-Tyr(3-NO2)-G-F-G-(Pal-3D)-HoSer-c | identified |  |  |
| c-d-G-HoCit-G-T-Nva-c | identified |  |  |
